Measurements from patent publication US6881421B1 (Bioalliance Pharma S.A., priority 1998, dated 2005).
Converted amounts (≈) assume the structure as drawn.

What was measured:
[1] = Titration of progesterone/steroid content of nanoparticles by HPLC; format: physicochemical; details: for Drug load: average of 3 values; for Increase in content load (number of times): PIBCA/HP CD particles versus PIBCA without HP CD; for Content of combined PIBCA and HP CD particles / Content of PIBCA nanoparticles without HP CD: average of three preparations; for Content of PIBCA nanoparticles without HP CD: reference particles
Protocol: (§1) The different suspensions of nanoparticles were centrifuged at 82,000 g for 30 to 40 min at 25° C. (Beckman, L5-65 Ultracentrifuge, 70.1 Ti type rotor) and resuspended in 5 ml distilled water. The suspensions were finally freeze-dried (Christ HED Freeze Drier, Germany).
To titrate the progesterone content in the nanoparticles, the freeze-dried products were diluted in acetonitrile of HPLC grade and the solutions analyzed by high performance liquid chromatography (HPLC). The HPLC system consisted of a 510 solvent delivery unit (Waters-Saint-Quentin-en-Yvelines, France), a WISP 712 automatic sampler, a column Nova-Pak C18 4 μm column (250×4.6 mm), a 486 absorbency detector which operated at 245 NM and interfaced with a 746 data module. The flow rate was 1.0 ml/min and the mobile phase made up of water and acetonitrile (40:60) for which the retention time was approximately 12 min. The results were expressed as an average of three titrations.
The different steroids were determined as in Example 6 so that the titration of these different substances was conducted under the same analytical conditions.

[2] = Solubility of progesterone; format: physicochemical; details: polymerization medium, aqueous with cosolvent or surfactant or cyclodextrin; diluted hydrochloric acid (pH 2.0), 1% (w/v) poloxamer 188; read-out: maximum solubility in the polymerization medium
[3] = In vitro release of progesterone from PIBCA/HPβCD nanoparticles; format: physicochemical; details: for progesterone released, second slower phase / progesterone released, initial rapid release: ABB pH 8.4, 37° C.; for progesterone released, initial rapid release: first hour; for progesterone released: ABB with 40% PEG 400
Protocol: A weighed quantity of freeze-dried nanoparticles (containing 1% (w/v) of glucose) was placed in a bottle containing 15 ml of alkaline borate buffer solution (ABB) (pH 8.4) or of ABB containing esterases (25 and 100 IU) or of ABB/poly(ethyleneglycol) 400 (PEG) at 20 and 40% (v/v). The samples were magnetically stirred at 200 r/min and 37° C., and taken at predetermined intervals. The suspensions were centrifuged at 82,000 g for 30 minutes at 20° C., then the progesterone content of the supernatant is determined for all media and the HPβCD content for the PEG media. The progesterone content is determined using HPLC as described above with injection of 100 μl for the samples incubated in ABB media and 20 μl for the PEG media.
All the tests are conducted under conditions such 15 that the active ingredient concentration during the release stage is maintained below 10% saturation.

[4] = cited from earlier work
[5] = In vitro release of HPβCD from PIBCA/HPβCD nanoparticles; format: physicochemical; details: ABB medium, 37° C.; during the first hour
Protocol: Study of the release of HPBCD was conducted as for progesterone in ABB medium with quantification of the CD content after ultracentrifuging, by complexation with phenolphthalein as described above. The CD concentration at 100% release was approximately 100 μg/ml.

[6] = Titration of cyclodextrin content of nanoparticles (phenolphthalein spectrophotometry); format: physicochemical
Protocol: as §1
For quantification of HPβCD, the freeze-dried nanoparticles were hydrolyzed with 0.2 M NaOH for 12 hours, the pH adjusted to 7.0 (±0.5) and the HPBCD quantified by spectrophotometric titration of the discoloring of phenolphthalein solutions in the presence of HPβCD. Phenolphthalein formed stable, colorless inclusion complexes with cyclodextrins (CD). Consequently, the color intensity of a phenolphthalein solution in alkaline borate buffer decreased in proportion to the quantity of CD in solution.
Reference solutions were prepared by diluting mother solutions of CD in alkaline borate buffer solution with pH 10.0 containing 2% ethanol solution of 0.006 M phenolphthalein. The reference curves (λ=550 nm) are linear for CD concentrations ranging from 1 to 100 μg/ml. To the samples were added 4 parts buffer solution containing phenolphthalein and they were then tested directly.
The HPβCD was also titrated as in Example 6.

[7] = PIBCA nanoparticles without HPβCD
[8] = PIBCA/HPBCD nanoparticles (10 mg/ml HPβCD)

Row | Compound | Drug load [1, 7] | Increase in content load (number of times) [1] | Drug load [1, 8] | Content of combined PIBCA and HP CD particles [1] | Content of PIBCA nanoparticles without HP CD [1] | further results
1 | CC(=O)[C@H]1CC[C@H]2[C@@H]3CCC4=CC(=O)CC[C@]4(C)[C@H]3CC[C@]12C [Progesterone, progesterone] | 0.79 mg/g | 27.7 number of times | 24.0 mg/g | 69.60 mmol/g | 2.51 mmol/g | progesterone content ([1]; larger particles (170 nm)): 10.5 µg/mg; progesterone content of particles ([1]; prepared in the presence of HPβCD, highest content (FIG. 5)): 45 μg/mg of particles; active ingredient content ([1]; smallest nanoparticles (70 nm)): 24 µg/mg; solubility [2]: ~60 µg/mL (≈ 191 µM); progesterone released, second slower phase ([3]; 70 nm nanoparticles): ~62%; progesterone released, initial rapid release ([3]; 70 nm nanoparticles): ~34%; progesterone released, second slower phase ([3]; 150 nm nanoparticles): approximately 35%; progesterone released, initial rapid release ([3]; 150 nm nanoparticles): approximately 10%; progesterone released ([3]; first-named formulation (150 nm)): approximately 75%; progesterone released ([3]; second-named formulation (70 nm)): ~82%; quantity of released progesterone ([3]; ABB with esterases (25 and 100 IU), both tested formulations): ~100%; water-solubility [4]: 10 µg/mL
2 | C[C@]12CC[C@H]3[C@@H](CCC4=CC(=O)CC[C@@]43C)[C@@H]1CC[C@@H]2O [Testosterone, testosterone] | 2.27 mg/g | 8.6 number of times | 19.5 mg/g | 67.6 mmol/g | 7.87 mmol/g | 
3 | C[C@]12C=CC(=O)C=C1CC[C@@H]1[C@@H]2[C@@H](O)C[C@@]2(C)[C@H]1CC[C@]2(O)C(=O)CO [Prednisolone, prednisolone] | 0.12 mg/g | 129.2 number of times | 15.5 mg/g | 43.00 mmol/g | 0.33 mmol/g | Increase in content load (number of times) ([1]; listed as prednisolone): 129 number of times
4 | CC(=O)S[C@@H]1CC2=CC(=O)CC[C@]2(C)[C@H]2CC[C@@]3(C)[C@@H](CC[C@@]34CCC(=O)O4)[C@H]12 [Spironolactone, spironolactone] | 7.65 mg/g | 6.9 number of times | 53.0 mg/g | 127.23 mmol/g | 18.36 mmol/g | 
5 | C#C[C@]1(O)CC[C@H]2[C@@H]3CCC4=Cc5oncc5C[C@]4(C)[C@H]3CC[C@@]21C [Danazol, danazol] | 0.34 mg/g | 32.9 number of times | 11.2 mg/g | 33.19 mmol/g | 1.01 mmol/g | 
6 | C[C@]12CCC(=O)C=C1CC[C@@H]1[C@@H]2[C@@H](O)C[C@@]2(C)[C@H]1CC[C@]2(O)C(=O)CO [Hydrocortisone, hydrocortisone] | 2.19 mg/g | 7.0 number of times | 15.3 mg/g | 42.21 mmol/g | 6.04 mmol/g | 
7 | CC(=O)O[C@]1(C(C)=O)CC[C@H]2[C@@H]3C=C(C)C4=CC(=O)CC[C@]4(C)[C@H]3CC[C@@]21C [Megestrolacetate, megestrol acetate] | 0.25 mg/g | 5.6 number of times | 1.4 mg/g | 3.64 mmol/g | 0.65 mmol/g | 
8 | CC(O)COC[C@H]1O[C@@H]2O[C@H]3[C@H](O)[C@@H](O)[C@@H](O[C@H]4[C@H](O)[C@@H](O)[C@@H](O[C@H]5[C@H](O)[C@@H](O)[C@@H](O[C@H]6[C@H](O)[C@@H](O)[C@@H](O[C@H]7[C@H](O)[C@@H](O)[C@@H](O[C@H]8[C@H](O)[C@@H](O)[C@@H](O[C@H]1[C@H](O)[C@H]2O)O[C@@H]8COCC(C)O)O[C@@H]7COCC(C)O)O[C@@H]6COCC(C)O)O[C@@H]5COCC(C)O)O[C@@H]4COCC(C)O)O[C@@H]3COCC(C)O (stereo partly drawn) [HPβCD, 2-hydroxypropyl-β-cyclodextrin] |  |  |  |  |  | cyclodextrin released [5]: ~100%; quantity of HPβCD associated with the particles ([6]; equal initial masses of HPβCD and isobutylcyanoacrylate in the polymerization medium): approximately 35%; quantity of HPβCD associated with the particles ([6]; maximum reached with increasing HPβCD (FIG. 3)): about 60 % of particle weight
